According to ChEMBL document CHEMBL4049403, “Oligo-aspartic acid conjugates with benzo[c][2,6]naphthyridine-8-carboxylic acid scaffold as picomolar inhibitors of CK2” (Bioorg Med Chem, 2017):
Where a SMILES comes first, the peptide text is derived from it. The star is where a group is joined. X1 = O=C(O)c1ccc2c(c1)nc(OCCCCCCCCC(=O)*)c1ccncc12

Assays:
[1] = target: Interleukin-1 receptor-associated kinase 1 (Homo sapiens) (UniProt P51617); assay: Inhibition of human IRAK1 assessed as residual activity at 1 uM in presence of [33P]ATP by filter binding assay relative to control
[2] = target: Serine/threonine-protein kinase Nek2 (Homo sapiens) (UniProt P51955); assay: Inhibition of human NEK2a assessed as residual activity at 1 uM in presence of [33P]ATP by filter binding assay relative to control
[3] = target: Serine/threonine-protein kinase BRSK2 (Homo sapiens) (UniProt Q8IWQ3); assay: Inhibition of human BRSK2 assessed as residual activity at 1 uM in presence of [33P]ATP by filter binding assay relative to control
[4] = target: MAP kinase-interacting serine/threonine-protein kinase 2 (Homo sapiens) (UniProt Q9HBH9); assay: Inhibition of human MNK2 assessed as residual activity at 1 uM in presence of [33P]ATP by filter binding assay relative to control
[5] = target: Dual specificity tyrosine-phosphorylation-regulated kinase 2 (Homo sapiens) (UniProt Q92630); assay: Inhibition of human DYRK2 assessed as residual activity at 1 uM in presence of 33P-ATP by filter-binding assay relative to control
[6] = target: MAP kinase-activated protein kinase 5 (Homo sapiens) (UniProt Q8IW41); assay: Inhibition of human PRAK assessed as residual activity at 1 uM in presence of [33P]ATP by filter binding assay relative to control
[7] = target: Serine/threonine-protein kinase Nek6 (Homo sapiens) (UniProt Q9HC98); assay: Inhibition of human NEK6 assessed as residual activity at 1 uM in presence of [33P]ATP by filter binding assay relative to control
Homo sapiens [8] = species on record: Homo sapiens; assay: Inhibition of human VEGFR assessed as residual activity at 1 uM in presence of 33P-ATP by filter-binding assay relative to control
[9] = target: Serine/threonine-protein kinase MARK2 (Homo sapiens) (UniProt Q7KZI7); assay: Inhibition of human MARK2 assessed as residual activity at 1 uM in presence of [33P]ATP by filter binding assay relative to control
[10] = target: Serine/threonine-protein kinase MARK1 (Homo sapiens) (UniProt Q9P0L2); assay: Inhibition of human MARK1 assessed as residual activity at 1 uM in presence of [33P]ATP by filter binding assay relative to control
[11] = target: High affinity nerve growth factor receptor (Homo sapiens) (UniProt P04629); assay: Inhibition of human TrkA assessed as residual activity at 1 uM in presence of [33P]ATP by filter binding assay relative to control
[12] = target: Tau-tubulin kinase 1 (Homo sapiens) (UniProt Q5TCY1); assay: Inhibition of human TTBK1 assessed as residual activity at 1 uM in presence of [33P]ATP by filter binding assay relative to control
[13] = target: Serine/threonine-protein kinase PLK1 (Homo sapiens) (UniProt P53350); assay: Inhibition of human PLK1 assessed as residual activity at 1 uM in presence of 33P-ATP by filter-binding assay relative to control
[14] = target: Mitogen-activated protein kinase 9 (Homo sapiens) (UniProt P45984); assay: Inhibition of human JNK2 assessed as residual activity at 1 uM in presence of [33P]ATP by filter binding assay relative to control
[15] = target: Serine/threonine-protein kinase SIK3 (Homo sapiens) (UniProt Q9Y2K2); assay: Inhibition of human SIK3 assessed as residual activity at 1 uM in presence of [33P]ATP by filter binding assay relative to control
[16] = target: CDK9/cyclin T1 (Homo sapiens) (UniProt O60563+P50750); assay: Inhibition of human CDK9-CyclinT1 assessed as residual activity at 1 uM in presence of [33P]ATP by filter binding assay relative to control; format: protein-complex assay
[17] = target: Ephrin type-B receptor 4 (Homo sapiens) (UniProt P54760); assay: Inhibition of human EPHB4 assessed as residual activity at 1 uM in presence of [33P]ATP by filter binding assay relative to control
Homo sapiens [18] = species on record: Homo sapiens; assay: Inhibition of human CK2 assessed as residual activity at 1 uM in presence of 33P-ATP by filter-binding assay relative to control
[19] = target: Tyrosine-protein kinase CSK (Homo sapiens) (UniProt P41240); assay: Inhibition of human CSK assessed as residual activity at 1 uM in presence of [33P]ATP by filter binding assay relative to control
[20] = target: Rho-associated protein kinase 2 (Homo sapiens) (UniProt O75116); assay: Inhibition of human ROCK2 assessed as residual activity at 1 uM in presence of [33P]ATP by filter binding assay relative to control
[21] = target: MAP kinase-activated protein kinase 3 (Homo sapiens) (UniProt Q16644); assay: Inhibition of human MAPKAP-K3 assessed as residual activity at 1 uM in presence of [33P]ATP by filter binding assay relative to control
[22] = test system: Serine/threonine-protein kinase MAP4K2 (Homo sapiens); assay: Inhibition of human GCK assessed as residual activity at 1 uM in presence of 33P-ATP by filter-binding assay relative to control
[23] = target: Tyrosine-protein kinase Yes (Homo sapiens) (UniProt P07947); assay: Inhibition of human YES1 assessed as residual activity at 1 uM in presence of [33P]ATP by filter binding assay relative to control
[24] = target: Homeodomain-interacting protein kinase 3 (Homo sapiens) (UniProt Q9H422); assay: Inhibition of human HIPK3 assessed as residual activity at 1 uM in presence of 33P-ATP by filter-binding assay relative to control
[25] = target: Calcium/calmodulin-dependent protein kinase kinase 2 (Homo sapiens) (UniProt Q96RR4); assay: Inhibition of human CAMKKb assessed as residual activity at 1 uM in presence of [33P]ATP by filter binding assay relative to control
[26] = target: Serine/threonine-protein kinase PAK 2 (Homo sapiens) (UniProt Q13177); assay: Inhibition of human PAK2 assessed as residual activity at 1 uM in presence of [33P]ATP by filter binding assay relative to control
[27] = target: Aurora kinase B (Homo sapiens) (UniProt Q96GD4); assay: Inhibition of human Aurora B assessed as residual activity at 1 uM in presence of [33P]ATP by filter binding assay relative to control
[28] = target: MAP/microtubule affinity-regulating kinase 3 (Homo sapiens) (UniProt P27448); assay: Inhibition of human MARK3 assessed as residual activity at 1 uM in presence of [33P]ATP by filter binding assay relative to control
[29] = target: Serine/threonine-protein kinase pim-3 (Homo sapiens) (UniProt Q86V86); assay: Inhibition of human PIM3 assessed as residual activity at 1 uM in presence of [33P]ATP by filter binding assay relative to control
[30] = target: Receptor-interacting serine/threonine-protein kinase 2 (Homo sapiens) (UniProt O43353); assay: Inhibition of human RIPK2 assessed as residual activity at 1 uM in presence of 33P-ATP by filter-binding assay relative to control
Receptor-interacting serine/threonine-protein kinase 2 (Homo sapiens), sequence (O43353 whole entry): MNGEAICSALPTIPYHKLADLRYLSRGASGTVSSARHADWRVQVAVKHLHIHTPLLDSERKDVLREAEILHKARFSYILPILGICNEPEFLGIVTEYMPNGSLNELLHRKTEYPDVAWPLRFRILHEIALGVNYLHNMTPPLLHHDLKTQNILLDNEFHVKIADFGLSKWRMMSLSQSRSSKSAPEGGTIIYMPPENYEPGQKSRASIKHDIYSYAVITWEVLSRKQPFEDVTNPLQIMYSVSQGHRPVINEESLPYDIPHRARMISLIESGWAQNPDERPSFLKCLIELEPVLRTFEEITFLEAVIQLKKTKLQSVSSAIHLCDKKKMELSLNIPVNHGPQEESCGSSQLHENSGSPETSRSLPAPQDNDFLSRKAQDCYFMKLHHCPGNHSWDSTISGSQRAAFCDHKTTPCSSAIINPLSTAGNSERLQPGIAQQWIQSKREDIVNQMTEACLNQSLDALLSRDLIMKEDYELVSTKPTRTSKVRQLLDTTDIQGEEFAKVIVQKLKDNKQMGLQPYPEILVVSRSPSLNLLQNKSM

Serine/threonine-protein kinase SIK3 (Homo sapiens), sequence (Q9Y2K2 whole entry, looked up): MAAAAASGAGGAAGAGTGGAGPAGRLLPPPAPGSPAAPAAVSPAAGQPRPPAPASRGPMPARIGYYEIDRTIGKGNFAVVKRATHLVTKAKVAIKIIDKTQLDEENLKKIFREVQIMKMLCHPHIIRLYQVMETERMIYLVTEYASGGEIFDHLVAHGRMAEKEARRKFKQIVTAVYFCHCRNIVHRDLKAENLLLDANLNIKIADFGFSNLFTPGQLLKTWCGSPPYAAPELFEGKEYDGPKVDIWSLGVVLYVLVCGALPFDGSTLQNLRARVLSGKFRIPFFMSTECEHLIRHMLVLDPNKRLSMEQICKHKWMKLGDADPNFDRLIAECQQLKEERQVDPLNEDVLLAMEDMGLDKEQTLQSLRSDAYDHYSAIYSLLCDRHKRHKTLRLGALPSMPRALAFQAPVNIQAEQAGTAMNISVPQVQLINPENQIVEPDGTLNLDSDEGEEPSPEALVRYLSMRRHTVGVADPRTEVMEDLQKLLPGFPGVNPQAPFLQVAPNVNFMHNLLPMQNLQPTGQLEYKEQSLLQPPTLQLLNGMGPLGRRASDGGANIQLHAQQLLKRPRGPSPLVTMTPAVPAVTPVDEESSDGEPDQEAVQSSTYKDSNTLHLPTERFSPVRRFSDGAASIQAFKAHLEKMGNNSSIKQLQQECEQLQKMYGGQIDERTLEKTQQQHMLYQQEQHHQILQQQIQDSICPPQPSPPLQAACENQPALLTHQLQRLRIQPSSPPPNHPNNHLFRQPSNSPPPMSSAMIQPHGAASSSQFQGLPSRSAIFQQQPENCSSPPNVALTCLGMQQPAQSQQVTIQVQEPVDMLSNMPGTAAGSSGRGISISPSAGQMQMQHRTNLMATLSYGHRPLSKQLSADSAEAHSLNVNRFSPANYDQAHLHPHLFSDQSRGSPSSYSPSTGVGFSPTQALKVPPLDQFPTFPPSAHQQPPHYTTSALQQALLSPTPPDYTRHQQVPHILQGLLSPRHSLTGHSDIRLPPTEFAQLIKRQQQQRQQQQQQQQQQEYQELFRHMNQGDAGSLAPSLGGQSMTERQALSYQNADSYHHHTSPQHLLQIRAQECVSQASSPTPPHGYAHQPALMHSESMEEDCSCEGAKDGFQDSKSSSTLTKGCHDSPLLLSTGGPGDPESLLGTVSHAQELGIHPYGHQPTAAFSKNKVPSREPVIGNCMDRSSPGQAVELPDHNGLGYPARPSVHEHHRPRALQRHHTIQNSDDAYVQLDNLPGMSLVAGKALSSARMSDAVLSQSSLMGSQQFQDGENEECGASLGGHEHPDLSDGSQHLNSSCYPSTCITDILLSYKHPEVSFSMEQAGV
Tyrosine-protein kinase CSK (Homo sapiens), sequence (P41240 2-450 limits assumed): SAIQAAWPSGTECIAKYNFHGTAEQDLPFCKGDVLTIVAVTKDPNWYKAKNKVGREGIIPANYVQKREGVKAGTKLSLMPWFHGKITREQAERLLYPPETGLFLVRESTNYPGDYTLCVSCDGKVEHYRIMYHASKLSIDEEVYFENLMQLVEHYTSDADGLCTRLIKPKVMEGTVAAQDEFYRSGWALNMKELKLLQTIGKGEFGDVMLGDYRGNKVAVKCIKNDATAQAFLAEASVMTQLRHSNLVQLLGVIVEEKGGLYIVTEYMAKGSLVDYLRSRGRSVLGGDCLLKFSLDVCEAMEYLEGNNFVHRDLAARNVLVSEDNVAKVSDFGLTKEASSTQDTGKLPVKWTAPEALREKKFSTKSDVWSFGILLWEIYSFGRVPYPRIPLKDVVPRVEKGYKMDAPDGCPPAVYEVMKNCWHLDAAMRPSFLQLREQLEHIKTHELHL
Serine/threonine-protein kinase MARK1 (Homo sapiens), sequence (Q9P0L2 whole entry, looked up): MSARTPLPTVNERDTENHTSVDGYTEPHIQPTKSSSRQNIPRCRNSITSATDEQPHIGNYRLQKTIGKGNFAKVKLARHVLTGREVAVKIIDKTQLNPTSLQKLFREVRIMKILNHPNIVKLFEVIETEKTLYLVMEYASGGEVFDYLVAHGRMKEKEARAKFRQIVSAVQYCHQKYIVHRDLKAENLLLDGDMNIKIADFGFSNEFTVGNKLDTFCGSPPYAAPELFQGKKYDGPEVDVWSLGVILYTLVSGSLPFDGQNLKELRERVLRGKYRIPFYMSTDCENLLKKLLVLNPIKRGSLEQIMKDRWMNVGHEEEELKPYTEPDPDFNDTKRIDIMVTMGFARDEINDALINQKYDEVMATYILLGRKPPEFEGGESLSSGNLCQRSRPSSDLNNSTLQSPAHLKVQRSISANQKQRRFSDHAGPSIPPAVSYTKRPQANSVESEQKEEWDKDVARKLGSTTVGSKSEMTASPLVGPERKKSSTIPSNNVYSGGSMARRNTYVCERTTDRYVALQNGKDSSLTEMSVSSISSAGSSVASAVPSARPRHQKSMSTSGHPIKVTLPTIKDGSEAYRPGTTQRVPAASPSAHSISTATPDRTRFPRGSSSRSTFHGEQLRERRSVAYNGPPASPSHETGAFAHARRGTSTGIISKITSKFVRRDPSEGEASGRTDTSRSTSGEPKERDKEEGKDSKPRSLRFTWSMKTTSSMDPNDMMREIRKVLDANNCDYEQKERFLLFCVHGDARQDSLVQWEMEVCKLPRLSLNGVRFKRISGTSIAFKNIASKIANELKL
MAP kinase-interacting serine/threonine-protein kinase 2 (Homo sapiens), sequence (Q9HBH9 whole entry, looked up): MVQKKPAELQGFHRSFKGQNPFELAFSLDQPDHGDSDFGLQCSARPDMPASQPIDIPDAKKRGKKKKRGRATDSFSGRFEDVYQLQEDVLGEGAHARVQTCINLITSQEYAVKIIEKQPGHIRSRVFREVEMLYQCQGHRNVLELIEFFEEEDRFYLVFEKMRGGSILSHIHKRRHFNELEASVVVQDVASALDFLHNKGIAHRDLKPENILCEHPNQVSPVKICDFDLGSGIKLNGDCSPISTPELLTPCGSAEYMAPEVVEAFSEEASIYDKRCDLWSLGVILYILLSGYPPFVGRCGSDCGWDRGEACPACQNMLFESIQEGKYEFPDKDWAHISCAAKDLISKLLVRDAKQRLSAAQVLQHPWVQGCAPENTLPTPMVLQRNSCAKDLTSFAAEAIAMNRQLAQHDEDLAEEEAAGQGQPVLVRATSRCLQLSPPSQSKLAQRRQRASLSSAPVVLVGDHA
Serine/threonine-protein kinase Nek6 (Homo sapiens), sequence (Q9HC98 whole entry): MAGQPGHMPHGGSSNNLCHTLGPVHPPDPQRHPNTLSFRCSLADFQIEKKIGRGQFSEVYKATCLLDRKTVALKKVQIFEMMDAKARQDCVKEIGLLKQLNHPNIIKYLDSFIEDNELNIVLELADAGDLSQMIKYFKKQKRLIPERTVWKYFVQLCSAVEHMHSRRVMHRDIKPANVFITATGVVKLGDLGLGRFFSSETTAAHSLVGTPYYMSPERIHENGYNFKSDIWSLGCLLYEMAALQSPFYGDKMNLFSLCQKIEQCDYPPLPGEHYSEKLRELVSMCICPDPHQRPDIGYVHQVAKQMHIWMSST
MAP kinase-activated protein kinase 5 (Homo sapiens), sequence (Q8IW41 whole entry): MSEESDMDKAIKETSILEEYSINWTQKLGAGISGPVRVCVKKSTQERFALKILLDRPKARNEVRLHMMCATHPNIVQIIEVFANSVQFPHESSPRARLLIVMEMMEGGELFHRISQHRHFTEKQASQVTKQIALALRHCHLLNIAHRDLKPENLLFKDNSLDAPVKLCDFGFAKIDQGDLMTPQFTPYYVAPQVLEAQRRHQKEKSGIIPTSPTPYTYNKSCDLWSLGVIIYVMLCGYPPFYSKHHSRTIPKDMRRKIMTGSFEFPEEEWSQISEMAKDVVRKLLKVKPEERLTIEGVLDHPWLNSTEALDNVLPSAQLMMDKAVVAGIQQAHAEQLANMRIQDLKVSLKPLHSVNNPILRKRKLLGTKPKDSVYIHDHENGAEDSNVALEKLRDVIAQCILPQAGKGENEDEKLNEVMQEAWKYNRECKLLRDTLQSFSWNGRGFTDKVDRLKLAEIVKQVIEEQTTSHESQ
Mitogen-activated protein kinase 9 (Homo sapiens), sequence (P45984 whole entry, looked up): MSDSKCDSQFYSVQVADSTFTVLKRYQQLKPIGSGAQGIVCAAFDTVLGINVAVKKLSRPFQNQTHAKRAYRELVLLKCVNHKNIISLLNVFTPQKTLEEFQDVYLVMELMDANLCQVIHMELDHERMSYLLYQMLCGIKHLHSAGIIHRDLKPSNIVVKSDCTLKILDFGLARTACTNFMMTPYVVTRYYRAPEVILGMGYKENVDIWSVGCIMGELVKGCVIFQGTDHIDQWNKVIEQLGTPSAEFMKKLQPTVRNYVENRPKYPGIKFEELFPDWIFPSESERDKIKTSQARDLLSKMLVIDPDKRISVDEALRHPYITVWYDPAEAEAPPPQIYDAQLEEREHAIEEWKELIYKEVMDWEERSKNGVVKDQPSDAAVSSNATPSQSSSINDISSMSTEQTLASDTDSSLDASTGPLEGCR

Activity [1]: 97%
Activity [2]: 76%
Activity [3]: 91%
Activity [4]: 85%
Activity [5]: 5%
Activity [6]: 92%
Activity [7]: 90%
Activity (Homo sapiens [8]): 63%
Activity [9]: 75%
Activity [10]: 79%
Activity [11]: 85%
Activity [12]: 97%
Activity [13]: 23%
Activity [14]: 79%
Activity [15]: 90%
Activity [16]: 108%
Activity [17]: 86%
Activity (Homo sapiens [18]): 1%
Activity [19]: 77%
Activity [20]: 90%
Activity [21]: 82%
Activity [22]: 15%
Activity [23]: 91%
Activity [24]: 8%
Activity [25]: 81%
Activity [26]: 97%
Activity [27]: 86%
Activity [28]: 84%
Activity [29]: 84%
Activity [30]: 39%
SMILES: NCCCC[C@H](NC(=O)[C@H](CC(=O)O)NC(=O)[C@H](CC(=O)O)NC(=O)[C@H](CC(=O)O)NC(=O)[C@H](CC(=O)O)NC(=O)[C@H](CC(=O)O)NC(=O)[C@H](CC(=O)O)NC(=O)CCCCCCCCOc1nc2cc(C(=O)O)ccc2c2cnccc12)C(=O)O (X1-DDDDDDK-OH)
